Experimental data published in patent publication US20260060960A1, “GAMMA-SECRETASE INHIBITORS FOR USE IN THE TREATMENT OF INHERITED EPIDERMOLYSIS BULLOSA” (OSPEDALE PEDIATRICO BAMBINO GESU', priority 2022, published 2026).
“Also recorded” adds a separate entry of the source.

Columns and labels:
Type in all cases: cell-based, human
[1] = system: NOTCH1 intracellular domain (N1-ICD); experiment: Immunoblotting of cleaved NOTCH1 (N1-ICD) in nuclear extracts of RDEB fibroblasts; details: 24 h; for intranuclear levels of N1-ICD: RDEB-FBs, 5, 10 and 20 μM
From the text: 3-(4,5-dimethyl-2-thiazolyl)-2,5-diphenyl-2H-tetrazolium bromide (MTT) assay showing the impact of DAPT and PF-03084014 treatment on viability and proliferation rate of three primary fibroblast strains from healthy controls (NH-FBs). Absorbance values (Abs) were converted in percentage by using the following formula: AbsDAPT or PF-03084014×100/AbsREFERENCE WELLS. Data are presented as mean±standard deviation (SD) of at least eight technical replicates per condition. Cells treated with the vehicle DMSO (Panel A), and cells analyzed 24 h after seeding (T0) (Panel B) were considered as reference wells. NH-FBs were growth in DMEM medium containing 10% fetal bovine serum (FBS). […] Based on the results, it was chosen to use GSIs at 20 μM (black arrows) as it was the minimal drug concentration inducing a reduction of cell proliferation after 24 h of treatment. (Panel C) Immunoblotting analysis showing the protein levels of the cleaved and biologically active form of NOTCH1 receptor (N1-ICD, NOTCH1 intracellular domain) in nuclear extracts of primary fibroblasts from RDEB patients (RDEB-FBs, n=2) treated for 24 h with DAPT and PF-03084014 at different doses, ranging from 0.1 to 20 μM. Cells treated with the vehicle dimethyl sulfoxide (DMSO) were used as control. The reduced nuclear localization of N1-ICD indicates Notch pathway inhibition. […] Lamin B1 (LMNB1) and glyceraldehyde-3-phosphate dehydrogenase (GAPDH) served as loading controls for the nuclear and cytoplasmic protein fractions, respectively. **P-value <0.01, ***P<0.001.
RDEB-FBs were seeded on 100 mm cell culture dishes (8×10^5 cells/dish). Subconfluent cells were treated with different concentrations of PF-03084014 or DAPT for 24 h (FIG. 1—Panel C) or with 2 ng/mL of TGF-β1 for 6 h (FIG. 3D). DMSO-treated cells were used as controls. After cell harvesting with trypsin-EDTA, cytoplasmic and nuclear lysates were obtained using NE-PER™ Nuclear and Cytoplasmic Extraction Reagents kit (Thermo Fisher Scientific), following the manufacturer's instructions with slight modifications. […]

[2] = system: primary fibroblasts from RDEB patients (RDEB-FBs); experiment: MTT proliferation assay on RDEB fibroblasts; details: 20 μM
Method: Proliferation rate was assessed by 3-(4,5-dimethyl-2-thiazolyl)-2,5-diphenyl-2H-tetrazolium bromide (MTT) assay, following the manufacturer's protocol. In brief, three different strains of RDEB-FBs were seeded at the density of 4×10^3 cells into 96-well plates. The day after, RDEB-FBs growing in DMEM containing 10% FBS were treated with 20 μM DAPT or PF-03084014 for 24 h or 48 h. Cells treated with the vehicle DMSO were used as controls. At the selected time points, medium was replaced with MTT solution and plates were incubated in a dry incubator at 37° C. for 3 h. Thereafter, cells were lysed in DMSO to dissolve formazan crystals and absorbance values were recorded at 560 nm with an Infinite F50 microplate reader (Tecan, Mannedorf, Switzerland). Values recorded 24 h after cell seeding, before GSI stimulation (TO) were used as reference.

[3] = system: primary fibroblasts from RDEB patients (RDEB-FBs); experiment: Oris cell migration assay; details: 24 h, vs non-treated cells
Method: Migration rate was evaluated using an Oris™ Cell Migration Assay Kit (Platypus Technologies, Madison, WI, USA) following the manufacturer's instructions. Briefly, cells were seeded at high density (5×10^4 per well) onto 96-well plates containing medical-grade silicon stoppers that restrict cell seeding to an outer annular region of the well, and serum starved overnight. The day after, silicon stoppers were removed and cells were transfected. Analysis of cell migration into the detection zone was performed after Giemsa stain (Sigma-Aldrich). The detection zone was photographed with a Leica DMi8 microscope (Leica Microsystems, Wetzlar, Germany) at 0 h (premigration controls) and 24 h after stopper removal. ImageJ was used to calculate the percentage of cell-free area. The cell migration assay of RDEB-FBs and NH-FBs grown under basal conditions was performed following the same protocol.

[4] = system: TGF-β1 secreted by RDEB-FBs; experiment: TGF-β1 ELISA on conditioned media of RDEB fibroblasts; details: 20 μM, 48 h; for acid-activated TGF-β1 in conditioned media: three RDEB-FB strains, mean±SD
Method: Human TGF-β1 Quantikine ELISA Kit (R&D Systems, Minneapolis, MN, USA) was used to measure the amount of TGF-β1 (pg/mL) in serum-free conditioned media of three RDEB-FB strains, treated or not with PF-03084014 and DAPT at 1 or 20 μM for 48 h. DMSO-treated cells were used as controls. TGF-β1 Quantikine ELISA Kit was performed as per manufacturer's instructions. Samples were assayed in duplicate for each experimental condition. In order to detect both the latent precursor and the active form without latency-associated peptide cell supernatants were subjected to acid activation prior to be analyzed. Absorbance values were recorded at 455 nm with an Infinite F50 microplate reader (Tecan, Männedorf, Switzerland) and analyzed by employing the GraphPad Prism 8.2 version (GraphPad Software Inc., San Diego, CA, USA).

| SMILES | intranuclear levels of N1-ICD [1] | cell proliferation (MTT) ([2]; 24 and 48 h) | ability to migrate into the cell-free area [3] | acid-activated TGF-β1 in conditioned media [4] | nuclear N1-ICD protein levels (NOTCH1 cleavage and nuclear translocation) ([1]; RDEB-FBs, 0.1, 0.5, 1 μM, compared with DAPT) | proliferation rate (MTT) ([2]; 48 h, vs untreated cells) | reduction of TGF-β1 released in culture media ([4]; vs cells treated with DMSO and DAPT) |
| --- | --- | --- | --- | --- | --- | --- | --- |
| C[C@H](NC(=O)Cc1cc(F)cc(F)c1)C(=O)N[C@H](C(=O)OC(C)(C)C)c1ccccc1 [DAPT, N—[N-(3,5-difluorophenacetyl)-L-alanyl]-S-phenylglycine t-butyl ester] | comparable impact on the intranuclear levels of N1-ICD | didn't display variations in cell proliferation | significant decrease of RDEB-FB ability to migrate | 250.4 ± 97.3 pg/mL | – | – | – |
| CCC[C@H](N[C@H]1CCc2cc(F)cc(F)c2C1)C(=O)Nc1cn(C(C)(C)CNCC(C)(C)C)cn1 [PF-03084014, (S)-2-((S)-5,7-difluoro-1,2,3,4-tetrahydronaphthalen-3-ylamino)-N-(1-(2-methyl-1-(neopentylamino)propan-2-yl)-1H-imidazol-4-yl)pentanamide] | comparable impact on the intranuclear levels of N1-ICD | – | significant decrease of RDEB-FB ability to migrate | 99.6 ± 40.8 pg/mL | huge reduction; also recorded: greater ability of PF-03084014 in inhibiting NOTCH1 cleavage and its nuclear translocation | statistically significant reduction of RDEB-FB proliferation rate | up to 60% |
